Residues, ends and D or L forms follow the SMILES beside them.

This assay has as its target HLA-DR0901 protein (Homo sapiens, UniProt P01903+P01911, A100R/A103E/D57H/D86V/F55Y/F60I/F76Y/I96F/K127E/L162R/M171V/P40D/Q125H/Q99R/R33Q/R42F/S133A/S66N/T210M/V115G/W38K/Y107V/Y59G/Y89S). The assay can be described thus: Peptide binding competition assay, DR0901.
In turn, `CC[C@H](C)[C@H](NC(=O)[C@H](CCCCN)NC(=O)[C@H](CC(=O)O)NC(=O)[C@H](CC(C)C)NC(=O)[C@H](CO)NC(=O)[C@H](Cc1ccc(O)cc1)NC(=O)[C@H](CC(N)=O)NC(=O)[C@H](Cc1ccc(O)cc1)NC(=O)[C@H](CC(N)=O)NC(=O)[C@@H](N)CC(C)C)C(=O)N[C@H](C(=O)N[C@H](C(=O)N[C@@H](CC(=O)O)C(=O)O)C(C)C)[C@@H](C)CC` [LNYNYSLDKIIVD] (H-LNYNYSLDKIIVD-OH) returned a dissociation constant (Kd) of 0.113 ± 0.04 µM.
`CC[C@H](C)[C@H](NC(=O)[C@H](CCCCN)NC(=O)[C@H](CC(=O)O)NC(=O)[C@H](CC(C)C)NC(=O)[C@H](CCC(N)=O)NC(=O)[C@H](Cc1ccc(O)cc1)NC(=O)[C@H](CC(N)=O)NC(=O)[C@H](Cc1ccccc1)NC(=O)[C@H](CC(N)=O)NC(=O)[C@@H](N)CC(C)C)C(=O)N[C@H](C(=O)N[C@H](C(=O)N[C@@H](CC(=O)O)C(=O)O)C(C)C)[C@@H](C)CC` [LNFNYQLDKIIVD] (H-LNFNYQLDKIIVD-OH) showed a dissociation constant Kd of 1.5 µM.
In the case of `CC[C@H](C)[C@H](NC(=O)[C@H](CCCCN)NC(=O)[C@H](CC(=O)O)NC(=O)[C@H](CC(C)C)NC(=O)[C@H](CCSC)NC(=O)[C@H](Cc1ccc(O)cc1)NC(=O)[C@H](CC(N)=O)NC(=O)[C@H](Cc1ccccc1)NC(=O)[C@H](CC(N)=O)NC(=O)[C@@H](N)CC(C)C)C(=O)N[C@H](C(=O)N[C@H](C(=O)N[C@@H](CC(=O)O)C(=O)O)C(C)C)[C@@H](C)CC` [LNFNYMLDKIIVD] (H-LNFNYMLDKIIVD-OH), binding was put at a Kd of 0.146 ± 0.009 µM.
In turn, `CC[C@H](C)[C@H](NC(=O)[C@H](CCCCN)NC(=O)[C@H](CC(=O)O)NC(=O)[C@H](CC(C)C)NC(=O)[C@H](C)NC(=O)[C@H](Cc1ccc(O)cc1)NC(=O)[C@H](CC(N)=O)NC(=O)[C@H](Cc1ccccc1)NC(=O)[C@H](CC(N)=O)NC(=O)[C@@H](N)CC(C)C)C(=O)N[C@H](C(=O)N[C@H](C(=O)N[C@@H](CC(=O)O)C(=O)O)C(C)C)[C@@H](C)CC` [LNFNYALDKIIVD] (H-LNFNYALDKIIVD-OH) displayed a Kd of 0.055 ± 0.01 µM.
Consider `CC[C@H](C)[C@H](NC(=O)[C@H](CCCCN)NC(=O)[C@H](CC(=O)O)NC(=O)[C@H](CC(C)C)NC(=O)[C@H](CC(N)=O)NC(=O)[C@H](Cc1ccc(O)cc1)NC(=O)[C@H](CC(N)=O)NC(=O)[C@H](Cc1ccccc1)NC(=O)[C@H](CC(N)=O)NC(=O)[C@@H](N)CC(C)C)C(=O)N[C@H](C(=O)N[C@H](C(=O)N[C@@H](CC(=O)O)C(=O)O)C(C)C)[C@@H](C)CC` [LNFNYNLDKIIVD] (H-LNFNYNLDKIIVD-OH), for which the affinity, expressed as Kd, was 0.29 ± 0.09 µM.
Regarding `CC[C@H](C)[C@H](NC(=O)[C@H](CCCCN)NC(=O)[C@H](CC(=O)O)NC(=O)[C@H](CC(C)C)NC(=O)[C@H](CO)NC(=O)[C@H](Cc1ccc(O)cc1)NC(=O)[C@H](CC(N)=O)NC(=O)[C@H](CC(C)C)NC(=O)[C@H](CC(N)=O)NC(=O)[C@@H](N)CC(C)C)C(=O)N[C@H](C(=O)N[C@H](C(=O)N[C@@H](CC(=O)O)C(=O)O)C(C)C)[C@@H](C)CC` [LNLNYSLDKIIVD] (H-LNLNYSLDKIIVD-OH), the equilibrium dissociation constant (Kd) stood at 0.45 ± 0.08 µM.
On to `CC[C@H](C)[C@H](NC(=O)[C@H](CC(N)=O)NC(=O)[C@H](CC(=O)O)NC(=O)[C@H](CC(C)C)NC(=O)[C@H](CO)NC(=O)[C@H](Cc1ccc(O)cc1)NC(=O)[C@H](CC(N)=O)NC(=O)[C@H](Cc1ccccc1)NC(=O)[C@H](CC(N)=O)NC(=O)[C@@H](N)CC(C)C)C(=O)N[C@H](C(=O)N[C@H](C(=O)N[C@@H](CC(=O)O)C(=O)O)C(C)C)[C@@H](C)CC` [LNFNYSLDNIIVD] (H-LNFNYSLDNIIVD-OH), for which the Kd is 0.027 ± 0.001 µM. Compared with the last compound, the Kd is about 17-fold lower.
For the compound `CC[C@H](C)[C@H](NC(=O)[C@H](CCCCN)NC(=O)[C@H](CC(=O)O)NC(=O)[C@H](CC(C)C)NC(=O)[C@H](CO)NC(=O)[C@H](Cc1ccc(O)cc1)NC(=O)[C@H](CC(N)=O)NC(=O)[C@H](Cc1ccccc1)NC(=O)[C@H](CC(N)=O)NC(=O)[C@@H](N)CC(C)C)C(=O)N[C@@H](CC(C)C)C(=O)N[C@H](C(=O)N[C@@H](CC(=O)O)C(=O)O)C(C)C` [LNFNYSLDKILVD] (H-LNFNYSLDKILVD-OH), binding was characterised by a dissociation constant (Kd) of 0.33 ± 0.068 µM.
Compound `CC[C@H](C)[C@H](NC(=O)[C@H](CCCCN)NC(=O)[C@H](CC(=O)O)NC(=O)[C@H](CC(C)C)NC(=O)[C@H](CO)NC(=O)[C@H](Cc1ccc(O)cc1)NC(=O)[C@H](CC(N)=O)NC(=O)[C@H](CCSC)NC(=O)[C@H](CC(N)=O)NC(=O)[C@@H](N)CC(C)C)C(=O)N[C@H](C(=O)N[C@H](C(=O)N[C@@H](CC(=O)O)C(=O)O)C(C)C)[C@@H](C)CC` [LNMNYSLDKIIVD] (H-LNMNYSLDKIIVD-OH) displayed a dissociation constant (Kd) of 0.6 ± 0.15 µM. Compared with the last compound, the Kd is about 1.8-fold higher.
`CC[C@H](C)[C@H](NC(=O)[C@H](CCCCN)NC(=O)[C@H](CC(=O)O)NC(=O)[C@H](CC(C)C)NC(=O)[C@H](CO)NC(=O)[C@H](Cc1ccc(O)cc1)NC(=O)[C@H](CC(N)=O)NC(=O)[C@H](Cc1ccccc1)NC(=O)[C@H](CC(N)=O)NC(=O)[C@@H](N)CC(C)C)C(=O)N[C@@H](CO)C(=O)N[C@H](C(=O)N[C@@H](CC(=O)O)C(=O)O)C(C)C` [LNFNYSLDKISVD] (H-LNFNYSLDKISVD-OH): the equilibrium dissociation constant (Kd) came to 0.77 ± 0.1 µM.
Turning to `CC[C@H](C)[C@H](NC(=O)[C@H](CCCCN)NC(=O)[C@H](CC(N)=O)NC(=O)[C@H](CC(C)C)NC(=O)[C@H](CO)NC(=O)[C@H](Cc1ccc(O)cc1)NC(=O)[C@H](CC(N)=O)NC(=O)[C@H](Cc1ccccc1)NC(=O)[C@H](CC(N)=O)NC(=O)[C@@H](N)CC(C)C)C(=O)N[C@H](C(=O)N[C@H](C(=O)N[C@@H](CC(=O)O)C(=O)O)C(C)C)[C@@H](C)CC` [LNFNYSLNKIIVD] (H-LNFNYSLNKIIVD-OH), the equilibrium dissociation constant (Kd) stood at 0.093 ± 0.019 µM. Compared with the last compound, the Kd is about 8.3-fold lower.
`CC[C@H](C)[C@H](NC(=O)[C@H](CCCCN)NC(=O)[C@H](CC(C)C)NC(=O)[C@H](CC(C)C)NC(=O)[C@H](CO)NC(=O)[C@H](Cc1ccc(O)cc1)NC(=O)[C@H](CC(N)=O)NC(=O)[C@H](Cc1ccccc1)NC(=O)[C@H](CC(N)=O)NC(=O)[C@@H](N)CC(C)C)C(=O)N[C@H](C(=O)N[C@H](C(=O)N[C@@H](CC(=O)O)C(=O)O)C(C)C)[C@@H](C)CC` [LNFNYSLLKIIVD] (H-LNFNYSLLKIIVD-OH): the Kd turned out to be 0.067 ± 0.008 µM.
As for `CC[C@H](C)[C@H](NC(=O)[C@H](CCCCN)NC(=O)[C@H](CC(=O)O)NC(=O)[C@H](CC(C)C)NC(=O)[C@H](CO)NC(=O)[C@H](Cc1ccc(O)cc1)NC(=O)[C@H](CC(N)=O)NC(=O)[C@H](Cc1ccccc1)NC(=O)[C@H](CC(N)=O)NC(=O)[C@@H](N)CC(C)C)C(=O)N[C@@H](CCSC)C(=O)N[C@H](C(=O)N[C@@H](CC(=O)O)C(=O)O)C(C)C` [LNFNYSLDKIMVD] (H-LNFNYSLDKIMVD-OH), the dissociation constant Kd is 0.28 ± 0.061 µM.
On to `CC[C@H](C)[C@H](NC(=O)[C@H](CCCCN)NC(=O)[C@H](CC(=O)O)NC(=O)[C@H](CC(C)C)NC(=O)[C@H](CO)NC(=O)[C@H](Cc1ccc(O)cc1)NC(=O)[C@H](CC(N)=O)NC(=O)[C@H](Cc1ccccc1)NC(=O)[C@H](CC(N)=O)NC(=O)[C@@H](N)CC(C)C)C(=O)N1CCC[C@H]1C(=O)N[C@H](C(=O)N[C@@H](CC(=O)O)C(=O)O)C(C)C` [LNFNYSLDKIPVD] (H-LNFNYSLDKIPVD-OH), for which the equilibrium dissociation constant (Kd) amounted to 1.7 µM.
`CC[C@H](C)[C@H](NC(=O)[C@H](CCCCN)NC(=O)[C@H](CC(=O)O)NC(=O)[C@H](CC(C)C)NC(=O)[C@H](CC(C)C)NC(=O)[C@H](Cc1ccc(O)cc1)NC(=O)[C@H](CC(N)=O)NC(=O)[C@H](Cc1ccccc1)NC(=O)[C@H](CC(N)=O)NC(=O)[C@@H](N)CC(C)C)C(=O)N[C@H](C(=O)N[C@H](C(=O)N[C@@H](CC(=O)O)C(=O)O)C(C)C)[C@@H](C)CC` [LNFNYLLDKIIVD] (H-LNFNYLLDKIIVD-OH): the equilibrium dissociation constant (Kd) came out at 3.6 µM.
Turning to `CC[C@H](C)[C@H](NC(=O)[C@H](CCCCN)NC(=O)[C@H](CC(=O)O)NC(=O)[C@H](CC(C)C)NC(=O)[C@H](CO)NC(=O)[C@H](Cc1ccc(O)cc1)NC(=O)[C@H](CC(N)=O)NC(=O)[C@H](Cc1ccccc1)NC(=O)[C@H](CC(N)=O)NC(=O)[C@@H](N)CC(C)C)C(=O)N[C@@H](CC(=O)O)C(=O)N[C@H](C(=O)N[C@@H](CC(=O)O)C(=O)O)C(C)C` [LNFNYSLDKIDVD] (H-LNFNYSLDKIDVD-OH), the Kd stood at 0.79 ± 0.12 µM.
`CC[C@H](C)[C@H](NC(=O)[C@H](CCCCN)NC(=O)[C@H](CCSC)NC(=O)[C@H](CC(C)C)NC(=O)[C@H](CO)NC(=O)[C@H](Cc1ccc(O)cc1)NC(=O)[C@H](CC(N)=O)NC(=O)[C@H](Cc1ccccc1)NC(=O)[C@H](CC(N)=O)NC(=O)[C@@H](N)CC(C)C)C(=O)N[C@H](C(=O)N[C@H](C(=O)N[C@@H](CC(=O)O)C(=O)O)C(C)C)[C@@H](C)CC` [LNFNYSLMKIIVD] (H-LNFNYSLMKIIVD-OH) returned an equilibrium dissociation constant (Kd) of 0.046 ± 0.002 µM.
The compound `CC[C@H](C)[C@H](NC(=O)[C@H](CCCCN)NC(=O)[C@H](CC(=O)O)NC(=O)[C@H](CC(C)C)NC(=O)[C@H](CO)NC(=O)[C@H](Cc1ccc(O)cc1)NC(=O)[C@H](CC(N)=O)NC(=O)[C@H](Cc1ccccc1)NC(=O)[C@H](CC(N)=O)NC(=O)[C@@H](N)CC(C)C)C(=O)N[C@@H](Cc1c[nH]cn1)C(=O)N[C@H](C(=O)N[C@@H](CC(=O)O)C(=O)O)C(C)C` [LNFNYSLDKIHVD] (H-LNFNYSLDKIHVD-OH) showed a Kd of 0.74 ± 0.17 µM.
The compound `CC[C@H](C)[C@H](NC(=O)[C@H](CC(=O)O)NC(=O)[C@H](CC(=O)O)NC(=O)[C@H](CC(C)C)NC(=O)[C@H](CO)NC(=O)[C@H](Cc1ccc(O)cc1)NC(=O)[C@H](CC(N)=O)NC(=O)[C@H](Cc1ccccc1)NC(=O)[C@H](CC(N)=O)NC(=O)[C@@H](N)CC(C)C)C(=O)N[C@H](C(=O)N[C@H](C(=O)N[C@@H](CC(=O)O)C(=O)O)C(C)C)[C@@H](C)CC` [LNFNYSLDDIIVD] (H-LNFNYSLDDIIVD-OH) displayed a Kd of 0.176 ± 0.065 µM.
On to `CC[C@H](C)[C@H](NC(=O)[C@H](CCCCN)NC(=O)[C@H](CC(=O)O)NC(=O)[C@H](CC(C)C)NC(=O)[C@H](Cc1c[nH]cn1)NC(=O)[C@H](Cc1ccc(O)cc1)NC(=O)[C@H](CC(N)=O)NC(=O)[C@H](Cc1ccccc1)NC(=O)[C@H](CC(N)=O)NC(=O)[C@@H](N)CC(C)C)C(=O)N[C@H](C(=O)N[C@H](C(=O)N[C@@H](CC(=O)O)C(=O)O)C(C)C)[C@@H](C)CC` [LNFNYHLDKIIVD] (H-LNFNYHLDKIIVD-OH), for which the Kd came to 0.08 ± 0.015 µM.

The values above are taken from publication PMC4061985 (Journal of immunology (Baltimore, Md. : 1950), 2009).
